30 compounds from US7462614B2, “Imidazotriazine compounds” (Smithkline Beecham Corporation, priority 2003, dated 2008) can be followed below.

In this test the target is T1, truncated human PLK1 (kinase domain) (Homo sapiens, UniProt P53350).
T1 construct: made in house; host or cells: baculovirus-infected T. ni insect cells
T1 sequence (P53350 21-346): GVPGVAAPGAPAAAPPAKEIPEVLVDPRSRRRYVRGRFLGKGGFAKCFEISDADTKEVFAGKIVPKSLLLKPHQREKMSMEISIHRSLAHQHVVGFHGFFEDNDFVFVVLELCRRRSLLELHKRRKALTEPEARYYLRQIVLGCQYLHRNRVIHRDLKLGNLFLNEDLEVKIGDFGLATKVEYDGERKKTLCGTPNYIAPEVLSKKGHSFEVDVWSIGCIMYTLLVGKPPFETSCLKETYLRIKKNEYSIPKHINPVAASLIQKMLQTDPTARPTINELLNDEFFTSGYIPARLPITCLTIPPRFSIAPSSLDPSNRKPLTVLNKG
Briefly: Assay for Inhibition of PLK1 (33P SPA enzyme activity). It counts as biochemical. To be noted: 1 μM ATP, 2 nM enzyme; read-out: Ave pIC50 PLK Enzyme Inhibition (converted). The procedure: I. Assay for Inhibition of PLK1
A. Preparation of 6× N-Terminal His-Tagged PLK Kinase Domain
All procedures are performed at 4° C. Cells are lysed in 25 mM HEPES, 200 mM NaCl, 25 mM imidazole; pH 8.0. The homogenate is centrifuged at 14K rpm in a SLA-1500 rotor for 40 min and the supernatant filtered through a 1.2 micron filter. The supernatant is loaded onto a Nickel chelating Sepharose (Amersham Pharmacia) column and washed with 25 mM HEPES, 500 mM NaCl, 25 mM imidazole; pH 8.0. […] PLK is concentrated using a 10 kDa molecular weight cutoff membrane and then loaded onto a Superdex 75 gel filtration (Amersham BioSciences) column equilibrated in 25 mM HEPES, 1 mM DTT, 500 mM NaCl; pH 8.0. Fractions containing PLK are determined by SDS-PAGE. PLK is pooled, aliquoted and stored at […]. Samples are quality controlled using mass spectrometry.
B. Enzyme Activity±Inhibitors is Determined As Follows:
Compounds are added to the plate (1 μL in 100% DMSO).
Immediately upon addition of enzyme and thorough mixing, add 20 uL per well into 384-well white plates containing compounds and controls. […] The enzymatic reaction is stopped with 50 μl of bead mix (50 mM EDTA, 2 mg/ml Streptavidin-coated SPA beads in Standard Dulbecco's PBS (without Mg^2+and Ca^2+), and 60 μM ATP).
Take `COc1ccc(CCNC(C)=O)cc1Nc1ncc2c(C)nc(-c3cccc(C(F)(F)F)c3)n2n1` [Example 52, N-{2-[4-Methoxy-3-({5-methyl-7-[3-(trifluoromethyl)phenyl]-imidazo[5,1-f][1,2,4]triazin-2-yl}amino)phenyl]ethyl}acetamide]: the IC50 is under 0.1 µM. Turning to `COc1ccc(CCN)cc1Nc1ncc2c(C)nc(-c3cccc(C(F)(F)F)c3)n2n1` [Example 53, N-[5-(2-Aminoethyl)-2-methoxyphenyl]-5-methyl-7-[3-(trifluoromethyl)phenyl]imidazo[5,1-f][1,2,4]triazin-2-amine], the IC50 is under 0.1 µM. For `COc1ccc(Nc2ncc3c(C)nc(-c4cccc(C(F)(F)F)c4)n3n2)c(OC)c1` [Example 54, N-(2,4-Dimethoxyphenyl)-5-methyl-7-[3-(trifluoromethyl)phenyl]-imidazo[5,1-f][1,2,4]triazin-2-amine], the IC50 was 0.1 to 10 µM. The figure for `COc1ccc(OC)c(Nc2ncc3c(C)nc(-c4cccc(C(F)(F)F)c4)n3n2)c1` [Example 55, N-(2,5-Dimethoxyphenyl)-5-methyl-7-[3-(trifluoromethyl)phenyl]-imidazo[5,1-f][1,2,4]triazin-2-amine] is 0.1 to 10 µM. In the case of `CCOC(=O)c1cncc(Nc2ncc3c(C)nc(-c4cccc(C(F)(F)F)c4)n3n2)c1` [Example 56, Ethyl 5-({5-methyl-7-[3-(trifluoromethyl)phenyl]imidazo[5,1-f][1,2,4]triazin-2-yl}amino)nicotinate], the IC50 was 0.1 to 10 µM. In the case of `COc1cc(Nc2ncc3c(C)nc(-c4cccc(C#Cc5cn[nH]c5)c4)n3n2)cc(OC)c1OC` [Example 58, 5-Methyl-7-[3-(1H-pyrazol-4-ylethynyl)phenyl]-N-(3,4,5-trimethoxyphenyl)imidazo[5,1-f][1,2,4]triazin-2-amine], the IC50 is 0.1 to 10 µM. For the compound `COc1cc(Nc2ncc3c(C)nc(-c4cccc(-c5cccc(C(=O)O)c5)c4)n3n2)cc(OC)c1OC` [Example 59, 3′-{5-Methyl-2-[(3,4,5-trimethoxyphenyl)amino]imidazo[5,1-f][1,2,4]triazin-7-yl}-1,1′-biphenyl-3-carboxylic acid], the IC50 was 0.1 to 10 µM.

For the compound `COc1cc(Nc2ncc3c(C)nc(-c4cccc(-c5ccc(CC(N)C(=O)O)cc5)c4)n3n2)cc(OC)c1OC` (stereo not drawn) [Example 60, 2-Amino-3-(3′-{5-methyl-2-[(3,4,5-trimethoxyphenyl)amino]imidazo-[5,1-f][1,2,4]triazin-7-yl}-1,1′-biphenyl-4-yl)propanoic acid], the IC50 was 0.1 to 10 µM. `COc1cc(Nc2ncc3c(C)nc(-c4cccc(-c5ccccc5C(F)(F)F)c4)n3n2)cc(OC)c1OC` [Example 61, 5-Methyl-7-[2′-(trifluoromethyl)-1,1′-biphenyl-3-yl]-N-(3,4,5-trimethoxyphenyl)imidazo[5,1-f][1,2,4]triazin-2-amine]: the IC50 is 0.1 to 10 µM.

Turning to `COc1cc(Nc2ncc3c(C)nc(-c4cccc(/C(=C\C(N)=O)c5ccccc5)c4)n3n2)cc(OC)c1OC` [Example 62, (2Z)-3-(3-{5-Methyl-2-[(3,4,5-trimethoxyphenyl)amino]-imidazo[5,1-f][1,2,4]triazin-7-yl}phenyl)-3-phenylprop-2-enamide], the IC50 is 0.1 to 10 µM.

For `CCS(=O)(=O)c1ccc(OC)c(Nc2cccc(-c3nc(C)c4cnc(Nc5cc(OC)c(OC)c(OC)c5)nn34)c2)c1` [Example 63, 7-(3-{[5-(Ethylsulfonyl)-2-methoxyphenyl]amino}phenyl)-5-methyl-N-(3,4,5-trimethoxyphenyl)imidazo[5,1-f][1,2,4]triazin-2-amine], the IC50 was over 10 µM. On to `COc1cc(Nc2ncc3c(C)nc(-c4cccc(Nc5ccc(Cn6cncn6)cc5)c4)n3n2)cc(OC)c1OC` [Example 64, 5-Methyl-7-(3-{[4-(1H-1,2,4-triazol-1-ylmethyl)phenyl]amino}-phenyl)-N-(3,4,5-trimethoxyphenyl)imidazo[5,1-f][1,2,4]triazin-2-amine], for which the IC50 was 0.1 to 10 µM.

`COc1cc(Nc2ncc3c(C)nc(-c4cccc(Nc5ccc(-n6ccnc6)cc5)c4)n3n2)cc(OC)c1OC` [Example 65, 7-(3-{[4-(1H-Imidazol-1-yl)phenyl]amino}phenyl)-5-nv-5-methyl-N-(3,4,5-trimethoxyphenyl)imidazo[5,1-f][1,2,4]triazin-2-amine]: the IC50 is over 10 µM. In the case of `COc1cc(Nc2ncc3c(C)nc(-c4cccc(Nc5ccc(N6CCOCC6)c(Cl)c5)c4)n3n2)cc(OC)c1OC` [Example 66, 7-{3-[(3-Chloro-4-morpholin-4-ylphenyl)amino]phenyl}-5-methyl-N-(3,4,5-trimethoxyphenyl)imidazo[5,1-f][1,2,4]triazin-2-amine], the IC50 is 0.1 to 10 µM. The figure for `COc1cc(Nc2ncc3c(C)nc(-c4cccc(Nc5cccc(CS(=O)(=O)N(C)C)c5)c4)n3n2)cc(OC)c1OC` [Example 67, N,N-Dimethyl-1-{3-[(3-{5-methyl-2-[(3,4,5-trimethoxyphenyl)amino]imidazo[5,1-f][1,2,4]triazin-7-yl}phenyl)amino]phenyl}methanesulfonamide] is 0.1 to 10 µM; for `COc1cc(Nc2ncc3c(C)nc(-c4cccc(Nc5ccc(CN6CCN(C)CC6)cc5)c4)n3n2)cc(OC)c1OC` [Example 68, 5-Methyl-7-[3-({4-[(4-methylpiperazin-1-yl)methyl]phenyl}-amino)phenyl]-N-/(3,4,5-trimethoxyphenyl)imidazo[5,1-f][1,2,4]triazin-2-amine] it is over 10 µM. Take `COc1cc(Nc2ncc3c(C)nc(-c4cccc(Nc5cccc(S(=O)(=O)NC6CC6)c5)c4)n3n2)cc(OC)c1OC` [Example 69, N-Cyclopropyl-3-[(3-{5-methyl-2-[(3,4,5-trimethoxyphenyl)amino]imidazo[5,1-f][1,2,4]triazin-7-yl}phenyl)amino]benzenesulfonamide]: the IC50 was 0.1 to 10 µM. As to `COc1ccc(Nc2ncc3c(C)nc(-c4ccc(Br)s4)n3n2)cc1` [Example 70, 7-(5-Bromo-2-thienyl)-5-methyl-N-[4-(methyloxy)phenyl]imidazo[5.1-f][1,2,4]triazin-2-amine], the IC50 was 0.1 to 10 µM.

In the case of `COc1ccc(Nc2ncc3c(C)nc(-c4sccc4Br)n3n2)cc1` [Example 71, 7-(3-Bromo-2-thienyl)-5-methyl-N-[4-(methyloxy)phenyl]imidazo[5,1-f][1,2,4]triazin-2-amine], the IC50 is 0.1 to 10 µM.

On to `COc1ccc(Nc2ncc3c(C)nc(C4CCOCC4)n3n2)cc1` [Example 72, 5-Methyl-N-[4-(methyloxy)phenyl]-7-(tetrahydro-2H-pyran-4-yl)imidazo[5,1-f][1,2,4]triazin-2-amine], for which the IC50 was 0.1 to 10 µM.

With `COc1ccc(Nc2ncc3c(C)nc(-c4ccccc4OC)n3n2)cc1` [Example 73, 5-Methyl-7-[2-(methyloxy)phenyl]-N-[4-(methyloxy)phenyl]-imidazo[5,1-f][1,2,4]triazin-2-amine], the IC50 is 0.1 to 10 µM.

As to `COc1ccc(Nc2ncc3c(C)nc(-c4cccc(OC)c4)n3n2)cc1` [Example 74, 5-Methyl-7-[3-(methyloxy)phenyl]-N-[4-(methyloxy)phenyl]-imidazo[5,1-f][1,2,4]triazin-2-amine], the IC50 was 0.1 to 10 µM.

For the compound `COc1ccc(Nc2ncc3c(C)nc(-c4ccccc4Cl)n3n2)cc1` [Example 75, 7-(2-Chlorophenyl)-5-methyl-N-[4-(methyloxy)phenyl]imidazo[5,1-f][1,2,4]triazin-2-amine], the IC50 was 0.1 to 10 µM. Consider `COc1ccc(Nc2ncc3c(C)nc(-c4cn(C)c5ccccc45)n3n2)cc1` [Example 76, 5-Methyl-7-(1-methyl-1H-indol-3-yl)-N-[4-(methyloxy)phenyl]imidazo[5,1-f][1,2,4]triazin-2-amine], for which the IC50 is 0.1 to 10 µM. With `COc1ccc(Nc2ncc3c(C)nc(C(C)c4ccccc4)n3n2)cc1` (stereo not drawn) [Example 77, 5-Methyl-N-[4-(methyloxy)phenyl]-7-(1-phenylethyl)imidazo[5,1-f][1,2,4]triazin-2-amine], the IC50 is over 10 µM. For the compound `COc1ccc(Nc2ncc3c(C)nc(-c4cc5ccccc5n4C)n3n2)cc1` [Example 78, 5-Methyl-7-(1-methyl-1H-indol-2-yl)-N-[4-(methyloxy)phenyl]imidazo[5,1-f][1,2,4]triazin-2-amine], the IC50 is over 10 µM. Consider `COc1ccc(Nc2ncc3c(C)nc(-c4ccsc4)n3n2)cc1` [Example 79, 5-Methyl-N-[4-(methyloxy)phenyl]-7-(3-thienyl)imidazo[5,1-f][1,2,4]triazin-2-amine], for which the IC50 is 0.1 to 10 µM.

For the compound `COc1ccc(Nc2ncc3c(C)nc(-c4ccoc4)n3n2)cc1` [Example 80, 7-(3-Furanyl)-5-methyl-N-[4-(methyloxy)phenyl]imidazo-[5,1-f][1,2,4]triazin-2-amine], the IC50 is 0.1 to 10 µM. As to `COc1ccc(Nc2ncc3c(C)nc(-c4ccco4)n3n2)cc1` [Example 81, 7-(2-Furanyl)-5-methyl-N-[4-(methyloxy)phenyl]imidazo-[5,1-f][1,2,4]triazin-2-amine], the IC50 is 0.1 to 10 µM. Turning to `COc1ccc(Nc2ncc3c(C)nc(-c4ccc(F)cc4)n3n2)cc1` [Example 82, 7-(4-Fluorophenyl)-5-methyl-N-[4-(methyloxy)phenyl]-imidazo[5,1-f][1,2,4]triazin-2-amine], the IC50 is 0.1 to 10 µM.
